Laboratory results taken from the METLIN SMRT retention time set (Domingo-Almenara et al. 2019).

Assay: gradient 5% acetonitrile 3 min, to 50% in 2 min, to 85% in 15 min, held 3 min, 100 µL/min
Details: column: Zorbax Extend-C18 2.1 x 50 mm; eluents: water / acetonitrile, 0.1% formic acid
Procedure, shortened: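 In both positive and negative ionization mode, a quadrupole time-of-flight mass spectrometer coupled to HPLC analyzed pure standards run in mixtures of ~100 molecules. The Zorbax Extend-C18 column (2.1 × 50 mm, 1.8 μm) was operated at 100 μL/min with water and acetonitrile, each containing 0.1% formic acid. The dead volume was 40 μL and the dwell volume 900 μL. Retention time came from adduct peaks that were computationally picked and individually inspected by hand.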

SMILES | RP-LC retention time [s]
CC(C)N1CCN(C(=O)c2csc(N3CCN(c4ccc(Cl)cc4)CC3)n2)CC1 | 706
CC(=O)Nc1ccc(C(=O)N2CC(C)CC(C)C2)o1 (stereo not drawn) | 739
Cc1sc2cc(C(=O)NCCN(C)C)[nH]c2c1CN1CCCCC1 | 536
CCc1nc(-c2csc(S(=O)(=O)N3CCCC(C(=O)N4CCc5ccccc54)C3)c2)no1 (stereo not drawn) | 1110
O=C(C1CCCN(c2nc3cccnc3s2)C1)N1CCCCCC1 (stereo not drawn) | 795
CCN(CC)CCNC(=O)c1cc(S(C)(=O)=O)ccc1OC | 617
COc1ccc2c(c1)C1(CCN(S(=O)(=O)c3ccc(C)cc3)C1)C(=O)N2C (stereo not drawn) | 929
CC(C)NCC(O)COc1ccc(Br)cc1Br (stereo not drawn) | 586
O=C(O)c1cnc(NCc2ccco2)nc1-c1ccccc1 | 772
O=C(NCc1ccccc1)c1nc2ccccn2c1-c1ccsc1 | 842
Cc1nccn1-c1ccc(=O)n(CCNC(=O)Cn2nc(-c3ccc(F)cc3)ccc2=O)n1 | 780
CCn1cc(Br)c(C(=O)Nc2ccc(C(C)=O)cc2)n1 | 829
CCOC(=O)c1ccc(OC(=O)c2cn(CC)c(=O)c3ccccc23)cc1 | 1110
O=C(Nc1nc2ccc(F)cc2s1)c1ccccc1Br | 900
O=C(C1CCN(c2ncnc3c2oc2ccccc23)CC1)N1CCN(c2ccc(Cl)cc2)CC1 | 891
CC(C)Cc1ccc(S(=O)(=O)N2CCC3(CC2)c2nccn2CCN3C)cc1 | 777
c1ccc(-c2nnc(-c3cccnc3)o2)cc1 | 666
CC(=O)N1CCN(c2nc3c(s2)CC(C(=O)Nc2cccc4c2CCCC4)CC3)CC1 (stereo not drawn) | 632
Nc1nc2ccc(Cl)cc2c2nc(-c3ccco3)nn12 | 755

SMILES | RP-LC retention time [s]
Cn1c(C(=O)NCc2ccccc2)cc2ccncc21 | 604
Cc1c(Cl)cccc1S(=O)(=O)N1CCc2c(c(-c3nnc(-c4ccccc4)o3)nn2C)C1 | 1060
CCCC(=O)Nc1nnc(SCc2ccc(Br)cc2)s1 | 934
CSc1cccc(NC(=O)Cn2cnc3nc4c(cc3c2=O)CCCC4)c1 | 755
CCc1ccc(NC(=O)Cn2c(C)nc3onc(C)c3c2=O)cc1 | 845
Cc1c(F)cccc1NC(=O)N1CCCC(Cn2cnc3cccnc32)C1 (stereo not drawn) | 709
COCc1nncn1C1CN(C(=O)Nc2ccc(Cl)cc2C(F)(F)F)C1 | 963
O=C(Nc1ccccc1)N1CCN(Cc2nc3cc(Cl)ccc3o2)CC1 | 716
CC(C)CNC(=O)N1CCCC(c2nc(C(C)C)no2)CCNC(=O)CC1 (stereo not drawn) | 679
Cc1ccc(S(=O)(=O)N2C[C@@H](F)C[C@H]2C(=O)N2CCc3ccccc3C2)cc1C | 973
CCOc1ccc(Nc2c(-c3ccccc3)nc3cnccn23)cc1 | 877
CC(C)CC(NC(=O)c1ccccc1)C(=O)Nc1nc2ccccc2[nH]1 (stereo not drawn) | 725
COc1ccc(CNC(=O)c2nnc(-c3ccc(S(=O)(=O)N4CCOCC4)cc3)o2)cc1 | 829
CCC(=O)N1c2ccc(S(=O)(=O)CCC(=O)NC3CCN(Cc4ccccc4)CC3)cc2CC1C (stereo not drawn) | 640
O=C1Nc2ccccc2C(=O)N2CCCC12 (stereo not drawn) | 590
Cc1nn(CC(=O)NCc2ccc(F)cc2Cl)c(=O)c2noc(C)c12 | 721
O=C(Nc1ccc2c(c1)OCO2)c1cn(-c2cc(N3CCCC3)ncn2)cn1 | 808
Cc1ccccc1-c1noc(-c2cccn(CC(=O)NCC3CCCO3)c2=O)n1 (stereo not drawn) | 729
CC1(CNS(=O)(=O)c2ccc(F)c(Cl)c2)CCOCC1 | 861
